From patent US20230000063A1, “SYSTEM FOR DETECTING EXTRACELLULAR PURINERGIC RECEPTOR LIGAND, AND NON-HUMAN ANIMAL HAVING THE SYSTEM INTRODUCED THEREINTO” (Chugai Seiyaku Kabushiki Kaisha, priority 2019, published 2023) come the findings set out here.

Each structure is given as a SMILES string.

Test [1] deals with T1, human P2Y11 (Homo sapiens, UniProt Q96G91).
T1 construct: expressed in transfected cells; host or cells: cells of the P2Y11-split Luc (C-terminal)/Arrestin-split Luc (N-terminal) double knock-in mouse (Rosa26 locus): in vivo, and a skin fibroblast line derived from it
T1 sequence (Q96G91 1-374): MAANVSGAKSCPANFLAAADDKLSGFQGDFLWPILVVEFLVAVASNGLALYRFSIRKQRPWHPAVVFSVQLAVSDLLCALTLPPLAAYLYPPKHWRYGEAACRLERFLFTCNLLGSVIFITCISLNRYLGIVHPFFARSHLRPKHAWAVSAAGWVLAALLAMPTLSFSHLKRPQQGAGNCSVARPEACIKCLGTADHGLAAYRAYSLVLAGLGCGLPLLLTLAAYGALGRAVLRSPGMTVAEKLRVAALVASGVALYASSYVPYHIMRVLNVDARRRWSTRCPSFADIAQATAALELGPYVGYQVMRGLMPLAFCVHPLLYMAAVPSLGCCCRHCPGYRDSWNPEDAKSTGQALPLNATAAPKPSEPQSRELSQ
Nature of the test: Detection of in vitro ATP concentration in fibroblasts derived from the double knock-in mouse. To be noted: fibroblast from double knock-in mouse; 0 to 1000 μM ATP + VivoGlo Luciferin; IVIS, exposure 180 sec. Type of test: cell-based. As for the experimental part: A skin tissue was collected from a P2Y11-split Luc (C-terminal)/Arrestin-split Luc (N-terminal) double knock-in mouse, and was sliced with a scalpel in a culture fluid, and the resultant was covered with a cover glass with a dermis side in contact with a bottom of a culture dish, and was cultured in a D-MEM medium supplemented with 10% FBS and 1×NEAA. Fibroblasts confirmed to have migration/growth of cells were collected by a trypsin treatment, and the resultant was repeatedly passaged to establish a fibroblast cell line.
The fibroblast derived from the P2Y-11 split Luc (C-terminal)/Arrestin-split Luc (N-terminal) double knock-in mouse was seeded in a 24-well culture plate. On the next day, ATP at a final concentration of 0 to 1000 μM and VivoGlo Luciferin (Promega #P1043) were added thereto, and a luminescent signal was detected with IVIS Spectrum CT (Perkin Elmer). The measurement was performed under conditions of exposure time of 180 sec, with medium binning, and F/Stop of 1, and thus the luminescent signal was analyzed in terms of a physical quantity (photons/sec).

Test [2] relates to human P2Y11. The test can be described thus: Detection of in vivo ATP signal in P2Y11-split Luc (C-terminal)/Arrestin-split Luc (N-terminal) double knock-in mouse. To be noted: 50 μL of 1 mM ATP + 15 mg/mL VivoGlo Luciferin subcutaneously, IVIS 10 to 20 minutes after, not detected in single-allele or wild type mice. As for the experimental part: To a P2Y11-split Luc (C-terminal)/Arrestin-split Luc (N-terminal) double knock-in mouse, 50 μL of a mixture of ATP at a final concentration of 1 mM and 15 mg/mL VivoGlo Luciferin (Promega #P1043) was subcutaneously administered. A luminescent signal intensity was measured with IVIS Spectrum CT (Perkin Elmer) 10 to 20 minutes after the ATP administration. The measurement was performed under conditions of exposure time of 180 sec, with medium binning, and F/stop of 1, and thus the luminescent signal was analyzed in terms of a physical quantity (photons/sec).

Test [3] deals with T1, human P2Y11. The test can be described thus: In vivo imaging of ATP at known concentration in the double knock-in mouse. To be noted: 50 μL of 0, 1, 2, 4 or 8 mM ATP + 15 mg/mL VivoGlo Luciferin subcutaneously, IVIS 10 to 20 minutes after, exposure 60 sec. As for the experimental part:
To a P2Y11-split Luc (C-terminal)/Arrestin-split Luc (N-terminal) double knock-in mouse, 50 μL of a mixture of ATP at a final concentration of 0 mM, 1 mM, 2 mM, 4 mM, or 8 mM and 15 mg/mL VivoGlo Luciferin (Promega #P1043) was subcutaneously administered. A luminescent signal intensity was measured with IVIS Spectrum CT (Perkin Elmer) 10 to 20 minutes after the ATP administration. The measurement was performed under conditions of exposure time of 60 sec, with medium binning, and F/stop of 1, and thus the luminescent signal was analyzed in terms of a physical quantity (photons/sec). […] Thus it was confirmed that the mouse functions as a concentration dependent reporter mouse (FIG. 6 and FIG. 7).

For `Nc1ncnc2c1ncn2[C@@H]1O[C@H](COP(=O)(O)OP(=O)(O)OP(=O)(O)O)[C@@H](O)[C@H]1O` [ATP], the luminescent signal intensity result at human P2Y11 [1] is listed as “a concentration-dependent signal intensity was detected”; on human P2Y11 [3], “an ATP concentration-dependent signal intensity was detected”. For the same molecule, the “luminescent signal due to the ATP administration” value with human P2Y11 [2] is given as “a luminescent signal due to the ATP administration was detected”.
